In US20080269293A1, “PYRAZOLE DERIVATIVES AS ANTI-PLATELET AND ANTI-THROMBOTIC AGENTS” (Pfizer Inc., priority 2006, published 2008):
pIC50: −log10 of the molar value.

Target: T1, platelet P2Y1 receptor (Homo sapiens, UniProt P47900)
T1 construct: expressed in transfected cells
Experiment: P2Y1 receptor binding assay ([β-33P]-2-thiomethyl ADP)
Conditions: binding of 0.3 nM [β-33P]-2-thiomethyl ADP, hP2Y1 expressing 132N1 cell membrane, 25° C., 60 minutes
Protocol: Conducting P2Y, Receptor Binding Assay
[β−^33P]-2-thiomethyl ADP (2100 Ci/mmol) was purchased from PerkinElmer, Protease Inhibitors Complete, EDTA-free, was purchased from Roche, and ADP (Adenosine diphosphate), MRS2179, and 2-thiomethy ADP (2-Me-S-ADP) were purchased from Sigma Chemical Co.
Binding of 0.3 nM [β-^33P]-2-thiomethyl ADP to platelet P2Y1 receptor in 132N1 cell membrane was carried out in triplicate at 25° C. with 96 well plate (Corning, 3365). Nonspecific binding was defined as binding in the presence of 1 μM of 2-Me-S-ADP. One […] of dimethyl sulfoxide (DMSO) or 1 μL of DMSO (Sigma-Aldrich, 472301) containing a test compound diluted to final assay concentrations of 0.1 nM to 1 mM were placed into each well of a Corning 96-well plate. A volume of 60 μL of buffer: 50 mM Tris pH 7.5 (Sigma, T-2194), 1 mM EDTA (Gibco, 15575-038) and 100 mM NaCl (Gibco, 200740-011) containing 0.3 nM [β-^33P]-2-thiomethyl ADP 40 μL of hP2Y1 expressing 132N1 cell membrane prep was added to each well. After incubation on shaker for 60 minutes, The contents of the wells are filtered and washed 8 times with Tomtec Cell Harvester through UniFilter 96, GF/B plates (PerkinElmer, 6005177) Forty five microliters […] Scintillation cocktail (Ultima-Flo-M) was added into each well and plates counted on a Trilux Microbeta Counter.
• 1. Add 1 μL DMSO or compounds into the wells according to the protocol. • 2. Add 60 μL incubation buffer with [β-^33P]-2-thiomethyl ADP into each well. • 3. Add 40 μL hP2Y1 expressing 132N1 cell membrance prep. Incubate 60 minutes on top of the shaker (IKA Shutter MTS4). • 4. Filter and wash 8× with Tomtec Cell Harvester through UniFilter GF/B plates (PerkinElmer, 6005177). • 5. Add 45 μL scintillation cocktail into each well and plates counted on a Trilux Microbeta Counter.

T1 sequence (P47900 whole entry): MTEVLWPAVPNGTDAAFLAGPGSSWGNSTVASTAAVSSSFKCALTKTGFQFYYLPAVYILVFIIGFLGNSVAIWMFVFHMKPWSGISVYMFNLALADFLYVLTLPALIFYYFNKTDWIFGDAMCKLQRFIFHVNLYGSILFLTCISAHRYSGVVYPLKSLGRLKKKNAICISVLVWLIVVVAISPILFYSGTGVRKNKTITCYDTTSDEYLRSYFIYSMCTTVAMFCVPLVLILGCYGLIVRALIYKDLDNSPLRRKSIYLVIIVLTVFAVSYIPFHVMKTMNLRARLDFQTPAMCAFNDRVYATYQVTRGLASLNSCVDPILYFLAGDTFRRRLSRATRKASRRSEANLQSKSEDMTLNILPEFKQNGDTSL

Compound	pIC50
COc1ccc(NC(=O)Nc2ccccc2Oc2cc(C)nn2-c2ccccc2)cc1Cl [Example 42]	5.16
CCc1ccccc1-n1nc(C)cc1Oc1ccccc1NC(=O)Nc1ccc(-n2cncn2)cc1 [Example 112, 1-(4-(1H-1,2,4-triazol-1-yl)phenyl)-3-(2-(1-(2-ethylphenyl)-3-methyl-1H-pyrazol-5-yloxy)phenyl)urea]	< 5.00
1-Phenyl-5-{2-[3-(4-trifluoromethoxy-phenyl)-ureido]-phenoxy}-1H-pyrazole-3-carboxylic acid methyl ester [Example 26]	< 5.00
Cc1cc(Oc2ccccc2NC(=O)Nc2ccc(C3CCNCC3)cc2)n(-c2ccccc2Cl)n1 [Example 120, 1-(2-(1-(2-chlorophenyl)-3-methyl-1H-pyrazol-5-yloxy)phenyl)-3-(4-(piperidin-4-yl)phenyl)urea]	< 5.00
Cc1cc(Oc2ccccc2NC(=O)Nc2c(C)cccc2C)n(-c2ccccc2)n1 [Example 58]	< 5.00
CC(=O)N1CCC(c2ccc(NC(=O)Nc3ccccc3Oc3cc(C)nn3-c3ccccc3Cl)cc2)CC1 [Example 121, 1-(4-(1-acetylpiperidin-4-yl)phenyl)-3-(2-(1-(2-chlorophenyl)-3-methyl-1H-pyrazol-5-yloxy)phenyl)urea]	< 5.00
COc1ccc(-n2nc(C)cc2Oc2ccccc2NC(=O)Nc2ccc(OC(F)(F)F)cc2)cc1 [Example 18]	6.14
Cc1cc(Oc2ccccc2NC(=O)Nc2cc(F)ccc2F)n(-c2ccccc2)n1 [Example 34]	6.10
Cc1cc(Oc2ccncc2NC(=O)Nc2ccc(OC(F)(F)F)cc2)n(-c2ccccc2)n1 [Example 23, 1-[4-(5-Methyl-2-phenyl-2H-pyrazol-3-yloxy)-pyridin-3-yl]-3-(4-trifluoromethoxy-phenyl)-urea]	5.05
Cc1cc(Oc2ccccc2NC(=O)Nc2cccc(C#N)c2)n(-c2ccccc2)n1 [Example 46]	< 5.00
Cc1cc(Oc2ccccc2NC(=O)Nc2ccc(C(C)(C)CO)cc2)n(-c2ccccc2Cl)n1 [Example 85, 1-{2-[2-(2-Chloro-phenyl)-5-methyl-2H-pyrazol-3-yloxy]-phenyl}-3-[4-(2-hydroxy-1,1-dimethyl-ethyl)-phenyl]-urea]	< 5.00
Cc1cc(Oc2ccccc2NC(=O)Nc2ccc(-n3ccnc3)cc2)n(-c2ccccc2Cl)n1 [Example 100, 1-(4-(1H-imidazol-1-yl)phenyl)-3-(2-(1-(2-chlorophenyl)-3-methyl-1H-pyrazol-5-yloxy)phenyl)urea]	< 5.00
Cc1cc(Oc2ccccc2NC(=O)Nc2ccc(C(C)N(C)C)cc2)n(-c2ccccc2Cl)n1 (centres unmarked) [Example 117, 1-(2-(1-(2-chlorophenyl)-3-methyl-1H-pyrazol-5-yloxy)phenyl)-3-(4-(1-(dimethylamino)ethyl)phenyl)urea]	< 5.00
Cc1cc(Oc2ccccc2NC(=O)Nc2c(C)cccc2Cl)n(-c2ccccc2)n1 [Example 62]	< 5.00
CCOC(=O)C(C)(C)c1ccc(NC(=O)Nc2ccccc2Oc2cc(C)nn2-c2ccccc2Cl)cc1 [Example 83, 2-[4-(3-{2-[2-(2-Chloro-phenyl)-5-methyl-2H-pyrazol-3-yloxy]-phenyl}-ureido)-phenyl]-2-methyl-propionic acid ethyl ester]	5.47
Cc1cc(Oc2ccccc2NC(=O)Nc2ccc(F)c(F)c2F)n(-c2ccccc2)n1 [Example 45]	5.05
CC(C)(C)c1ccc(NC(=O)Nc2ccccc2Oc2cc(C(=O)O)nn2-c2ccccc2)cc1 [Example 27, 5-{2-[3-(4-tert-Butyl-phenyl)-ureido]-phenoxy}-1-phenyl-1H-pyrazole-3-carboxylic acid]	5.14
CCc1ccccc1-n1nc(C)cc1Oc1ccccc1NC(=O)Nc1ccc(C#N)cc1 [Example 101, 1-(4-cyanophenyl)-3-(2-(1-(2-ethylphenyl)-3-methyl-1H-pyrazol-5-yloxy)phenyl)urea]	5.99
Cc1cc(Oc2ccccc2NC(=O)Nc2ccc(C3CCS(=O)(=O)CC3)cc2)n(-c2ccccc2Cl)n1 [Example 129]	< 5.00
Cc1cccc(-n2nc(C)cc2Oc2ccccc2NC(=O)Nc2ccc(OC(F)(F)F)cc2)c1 [Example 5]	6.34
CCOc1ccc(NC(=O)Nc2ccccc2Oc2cc(C)nn2-c2ccccc2)cc1 [Example 41]	5.30
COc1ccccc1-n1nc(C)cc1Oc1ccccc1NC(=O)Nc1ccc(OC(F)(F)F)cc1 [Example 11]	6.00
Cc1cc(Oc2ccccc2NC(=O)Nc2cc(F)ccc2C)n(-c2ccccc2)n1 [Example 48]	< 5.00

Compounds with a higher pIC50, results first:

pIC50	Compound
6.47	Cc1cc(Oc2ccccc2NC(=O)Nc2ccc(OC(F)(F)F)cc2)n(-c2ccc(C(C)(C)C)cc2)n1 [Example 97, 1-(2-(1-(4-tert-butylphenyl)-3-methyl-1H-pyrazol-5-yloxy)phenyl)-3-(4-(trifluoromethoxy)phenyl)urea]
6.54	CCc1ccccc1-n1nc(C)cc1Oc1ccccc1NC(=O)Nc1ccc(N2CCCCC2)cc1 [Example 110, 1-(2-(1-(2-ethylphenyl)-3-methyl-1H-pyrazol-5-yloxy)phenyl)-3-(4-(piperidin-1-yl)phenyl)urea]
6.55	Cc1cc(Oc2ccccc2NC(=O)Nc2ccc(OC(F)(F)F)cc2)n(-c2ccc(F)cc2)n1 [Example 15]
6.61	Cc1cc(Oc2ccccc2NC(=O)Nc2ccc(OC(F)(F)F)cc2)n(-c2ccc(Cl)cc2)n1 [Example 13]
6.74	CCc1ccccc1-n1nc(C)cc1Oc1ccccc1NC(=O)Nc1ccc(Oc2ccccc2)cc1 [Example 92, 1-(2-(1-(2-ethylphenyl)-3-methyl-1H-pyrazol-5-yloxy)phenyl)-3-(4-phenoxyphenyl)urea]
6.80	Cc1cc(Oc2ccccc2NC(=O)Nc2ccc(C3CCSCC3)cc2)n(-c2ccccc2Cl)n1 [Example 127, 1-(2-(1-(2-chlorophenyl)-3-methyl-1H-pyrazol-5-yloxy)phenyl)-3-(4-(tetrahydro-2H-thiopyran-4-yl)phenyl)urea]
6.82	Cc1cc(Oc2ccccc2NC(=O)Nc2ccc(OC(F)(F)F)cc2)n(-c2ccccc2C)n1 [Example 1, 1-[2-(5-Methyl-2-o-tolyl-2H-pyrazol-3-yloxy)-phenyl]-3-(4-trifluoromethoxy-phenyl)-urea]
6.85	Cc1cc(Oc2ccccc2NC(=O)Nc2ccc(OC(F)(F)F)cc2)n(-c2c(Cl)cccc2Cl)n1 [Example 19]
6.86	Cc1cc(Oc2ncccc2NC(=O)Nc2ccc(OC(F)(F)F)cc2)n(-c2ccccc2Cl)n1 [Example 22, 1-{2-[2-(2-Chloro-phenyl)-5-methyl-2H-pyrazol-3-yloxy]-pyridin-3-yl}-3-(4-trifluoromethoxy-phenyl)-urea]
6.88	Cc1cc(Oc2ccccc2NC(=O)Nc2ccc(OC(F)(F)F)cc2)n(-c2ccc(F)cc2F)n1 [Example 14]
6.91	CCc1ccccc1-n1nc(C)cc1Oc1ccccc1NC(=O)Nc1ccc(C(F)(F)F)cc1F [Example 93, 1-(2-(1-(2-ethylphenyl)-3-methyl-1H-pyrazol-5-yloxy)phenyl)-3-(2-fluoro-4-(trifluoromethyl)phenyl)urea]
6.92	Cc1cc(Oc2ccccc2NC(=O)Nc2ccc(C3CC3)cc2)n(-c2ccccc2Cl)n1 [Example 123, 1-(2-(1-(2-chlorophenyl)-3-methyl-1H-pyrazol-5-yloxy)phenyl)-3-(4-cyclopropylphenyl)urea]
7.02	Cc1cc(Oc2ccccc2NC(=O)Nc2ccc(C(C)(C)C)cc2)n(-c2ccccc2Cl)n1 [Example 6]
7.05	Cc1cc(Oc2ccccc2NC(=O)Nc2ccc(OC(F)(F)F)cc2)n(-c2cccc(Cl)c2Cl)n1 [Example 4]
7.22	CCc1ccccc1-n1nc(C)cc1Oc1ccccc1NC(=O)Nc1ccc(C(F)(F)F)cc1 [Example 107, 1-(2-(1-(2-ethylphenyl)-3-methyl-1H-pyrazol-5-yloxy)phenyl)-3-(4-(trifluoromethyl)phenyl)urea]
7.24	Cc1cc(Oc2ccccc2NC(=O)Nc2ccc(OC(F)(F)F)cc2)n(-c2ccccc2C(C)C)n1 [Example 113, 1-(2-(1-(2-isopropylphenyl)-3-methyl-1H-pyrazol-5-yloxy)phenyl)-3-(4-(trifluoromethoxy)phenyl)urea]
7.66	CCc1ccccc1-n1nc(C)cc1Oc1ccccc1NC(=O)Nc1ccc(C(C)C)cc1 [Example 104, 1-(2-(1-(2-ethylphenyl)-3-methyl-1H-pyrazol-5-yloxy)phenyl)-3-(4-isopropylphenyl)urea]
7.92	Cc1cc(Oc2ccccc2NC(=O)Nc2ccc(OC(F)(F)F)cc2)n(-c2ccc(F)cc2Cl)n1 [Example 114, 1-(2-(1-(2-chloro-4-fluorophenyl)-3-methyl-1H-pyrazol-5-yloxy)phenyl)-3-(4-(trifluoromethoxy)phenyl)urea]
